Data from patent US11208412B2 (DAEGU-GYEONGBUK MEDICAL INNOVATION FOUNDATION, priority 2017, dated 2021).

What was measured:
Assay in all cases: Kinase selectivity, DiscoverX scanMAX Kinase assay panel (% control)
Format in all cases: binding
[1] = target: T1, kinases of the scanMAX Kinase assay panel (Homo sapiens, UniProt Q12852); conditions: DLK; 1 uM
T1 construct: purchased DiscoverX Co. (contract measurement) scanMAX Kinase assay panel
T1 sequence (Q12852 1-859): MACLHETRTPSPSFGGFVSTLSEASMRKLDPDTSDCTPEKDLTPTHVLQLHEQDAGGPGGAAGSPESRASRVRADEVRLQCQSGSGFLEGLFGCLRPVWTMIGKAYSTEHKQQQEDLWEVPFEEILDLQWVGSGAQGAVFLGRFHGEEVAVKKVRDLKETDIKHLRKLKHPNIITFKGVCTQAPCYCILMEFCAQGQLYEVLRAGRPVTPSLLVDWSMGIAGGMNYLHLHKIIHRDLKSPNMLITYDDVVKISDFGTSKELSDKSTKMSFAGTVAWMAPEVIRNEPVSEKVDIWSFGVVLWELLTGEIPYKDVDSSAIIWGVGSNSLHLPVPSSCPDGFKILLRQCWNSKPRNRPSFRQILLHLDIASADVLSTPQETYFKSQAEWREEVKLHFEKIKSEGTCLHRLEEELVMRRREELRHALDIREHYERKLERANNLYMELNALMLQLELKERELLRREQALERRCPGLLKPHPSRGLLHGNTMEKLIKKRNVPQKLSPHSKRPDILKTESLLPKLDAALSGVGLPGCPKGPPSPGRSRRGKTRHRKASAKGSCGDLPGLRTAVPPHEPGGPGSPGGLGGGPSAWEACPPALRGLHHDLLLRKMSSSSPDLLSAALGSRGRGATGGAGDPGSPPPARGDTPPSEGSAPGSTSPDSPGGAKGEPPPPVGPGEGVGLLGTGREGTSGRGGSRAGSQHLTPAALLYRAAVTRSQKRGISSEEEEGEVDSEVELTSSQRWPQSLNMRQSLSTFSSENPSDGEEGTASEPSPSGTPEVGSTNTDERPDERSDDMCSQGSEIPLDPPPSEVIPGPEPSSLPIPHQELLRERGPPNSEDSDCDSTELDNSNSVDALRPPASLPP
Experimental: (§1) The following experiment was performed to evaluate the activity of the compounds of the present invention to inhibit many enzymes.
(§2) Particularly, the compounds of Examples 8, 64 and 104 were selected among all of those compounds of the invention. DiscoverX Co. was asked to measure the enzyme (kinase) selectivity, and the experiment was performed using scanMAX™ Kinase assay panel.
(§3) Wherein, the concentration of the drug treated to each enzyme was 1 uM in DMSO and the control percentage (% control) was determined by the following Equation 1. (example compound−positive control)/(negative control−positive control)×100 [Equation 1]
(§4) Herein, the positive control indicates the compound showing the % control of 0%, and the negative control indicates DMSO showing the % control of 100%. The enzyme selectivity in the present invention is defined as follows: When the % control for each enzyme is less than 35% (<35%), it is judged that the compound has the activity to the corresponding enzyme.

[2] = target: T2, kinases of the scanMAX Kinase assay panel (Homo sapiens, UniProt Q05397); conditions: FAK; 1 uM
T2 construct: purchased DiscoverX Co. (contract measurement) scanMAX Kinase assay panel
T2 sequence (Q05397 whole entry): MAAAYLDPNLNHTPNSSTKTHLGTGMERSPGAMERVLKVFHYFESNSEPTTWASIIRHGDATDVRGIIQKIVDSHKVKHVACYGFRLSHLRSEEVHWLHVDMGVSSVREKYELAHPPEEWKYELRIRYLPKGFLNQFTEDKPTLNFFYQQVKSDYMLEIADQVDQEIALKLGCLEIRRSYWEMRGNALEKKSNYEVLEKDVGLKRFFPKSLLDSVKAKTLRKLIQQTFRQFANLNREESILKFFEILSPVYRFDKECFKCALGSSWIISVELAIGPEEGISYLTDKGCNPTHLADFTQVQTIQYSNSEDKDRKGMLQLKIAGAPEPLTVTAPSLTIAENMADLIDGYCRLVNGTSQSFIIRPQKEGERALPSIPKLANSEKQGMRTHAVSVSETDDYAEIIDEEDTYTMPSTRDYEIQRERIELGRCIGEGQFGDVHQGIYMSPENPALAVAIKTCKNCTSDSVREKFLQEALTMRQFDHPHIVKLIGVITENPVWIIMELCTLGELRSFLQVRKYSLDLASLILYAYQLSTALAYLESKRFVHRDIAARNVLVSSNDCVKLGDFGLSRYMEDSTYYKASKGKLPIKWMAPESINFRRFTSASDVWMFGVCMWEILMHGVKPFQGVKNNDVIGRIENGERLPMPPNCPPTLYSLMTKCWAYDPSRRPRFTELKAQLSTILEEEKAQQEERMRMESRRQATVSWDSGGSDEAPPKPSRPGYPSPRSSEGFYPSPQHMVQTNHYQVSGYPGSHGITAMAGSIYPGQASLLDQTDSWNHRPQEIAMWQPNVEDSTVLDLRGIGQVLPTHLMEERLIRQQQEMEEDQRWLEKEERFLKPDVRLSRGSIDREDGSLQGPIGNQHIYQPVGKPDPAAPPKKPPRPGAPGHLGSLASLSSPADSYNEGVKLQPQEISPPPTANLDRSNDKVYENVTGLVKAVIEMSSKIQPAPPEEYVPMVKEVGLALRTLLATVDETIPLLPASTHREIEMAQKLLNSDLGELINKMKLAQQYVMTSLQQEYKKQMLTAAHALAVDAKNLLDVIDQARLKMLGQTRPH
Experimental: as §1, §2, §3, §4

[3] = target: T3, kinases of the scanMAX Kinase assay panel (Homo sapiens, UniProt Q12851); conditions: MAP4K2; 1 uM
T3 construct: purchased DiscoverX Co. (contract measurement) scanMAX Kinase assay panel
T3 sequence (Q12851 1-820): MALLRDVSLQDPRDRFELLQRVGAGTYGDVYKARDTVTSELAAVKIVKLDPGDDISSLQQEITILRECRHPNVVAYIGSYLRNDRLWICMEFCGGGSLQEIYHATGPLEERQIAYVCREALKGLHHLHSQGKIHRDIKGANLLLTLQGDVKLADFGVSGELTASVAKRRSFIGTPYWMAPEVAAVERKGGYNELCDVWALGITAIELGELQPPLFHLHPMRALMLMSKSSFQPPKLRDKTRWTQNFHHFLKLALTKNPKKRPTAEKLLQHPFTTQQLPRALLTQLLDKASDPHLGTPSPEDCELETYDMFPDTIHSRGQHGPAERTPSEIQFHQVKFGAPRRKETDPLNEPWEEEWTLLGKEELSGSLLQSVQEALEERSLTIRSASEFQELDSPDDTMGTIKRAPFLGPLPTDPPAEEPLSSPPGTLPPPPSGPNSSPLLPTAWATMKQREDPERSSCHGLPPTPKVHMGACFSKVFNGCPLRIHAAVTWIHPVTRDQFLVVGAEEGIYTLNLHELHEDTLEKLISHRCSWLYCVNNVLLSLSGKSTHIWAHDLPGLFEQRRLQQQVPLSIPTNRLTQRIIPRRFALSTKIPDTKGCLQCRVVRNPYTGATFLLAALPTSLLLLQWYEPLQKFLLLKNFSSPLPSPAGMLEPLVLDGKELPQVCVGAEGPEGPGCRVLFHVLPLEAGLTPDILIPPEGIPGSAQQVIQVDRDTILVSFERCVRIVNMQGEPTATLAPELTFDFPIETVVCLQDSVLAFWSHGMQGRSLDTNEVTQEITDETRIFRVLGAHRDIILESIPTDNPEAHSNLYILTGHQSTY
Experimental: as §1, §2, §3, §4

| Structure (SMILES) | remaining binding at 1 µM [1] [%] | remaining binding at 1 µM [2] [%] | remaining binding at 1 µM [3] [%] |
| --- | --- | --- | --- |
| CNc1nc(Nc2ccc(C(=O)N3CCOCC3)cc2OC)nc2[nH]cc(C#N)c12 [Example 1, 2-((2-methoxy-4-(morpholine-4-carbonyl)phenyl)amino)-4-(methylamino)-7H-pyrrolo[2,3-d]pyrimidine-5-carbonitrile] | 74 | 55 | 75 |
| CC1(Nc2nc(Nc3cnn([C@H]4CCN(C5COC5)C[C@@H]4F)c3Cl)nc3[nH]cc(C#N)c23)CC1 [Example 52, 2-((5-chloro-1-((3S,4S)-3-fluoro-1-(oxetane-3-yl)piperidine-4-yl)-1H-pyrazole-4-yl)amino)((1-methylcyclopropyl)amino)-7H-pyrrolo[2,3-d]pyrimidine-5-carbonitrile] | 21 | 0.3 | 1.2 |
| CCNc1nc(Nc2ccc(C(=O)N3CCC(N4CCOCC4)CC3)cc2OC)nc2[nH]cc(C(F)(F)F)c12 [Example 104, (4-((4-(ethylamino)-5-(trifluoromethyl)-7H-pyrrolo[2,3-d]pyrimidine-2-yl)amino)-3-methoxyphenyl)(4-morpholinopiperidine-1-yl)methanone] | 100 | 3.8 | 69 |
